Where a name gives a salt, the structure may show the parent alone. Read-outs that look alike come from different tables or passages of the source.
Experiments:
[1] = tested on: intact pig skin; experiment: TEWL of intact pig skin under occlusion (Hilltop chamber), testosterone formulations; format: in vivo; conditions: for barrier integrity / barrier permeability (TEWL) vs occlusion and TS controls, in words: Tables 9-11; for 6 h Post TEWL (x baseline): 6 h after removal of formulation
[2] = tested on: hairless mice; experiment: Epidermal barrier disruption: marker (propylene glycol, cyclophenol) profile in stratum corneum by IR and tape-stripping; format: in vivo
Protocol: To determine the epidermal barrier disruption by application of fluindostatin, an animal testing was conducted in the manner as follows: Hairless mice (two animals, B and C) were topically pretreated with fluindostatin for 7 days. In a control group, animals (two) were only treated with a vehicle. […] The parameters for the vehicle in all of the experiments herein are as follows: […] N=14. After treatment, the skin surface was cleaned and stratum corneum allowed to recover to its normal state of hydration for 2 hours. An IR spectrum of the hydrophilic marker compound, propylene glycol, was recorded, and a single tape-stripping was conducted at the treated skin site. Another spectrum was recorded followed by the removal of a. second tape strip. The same sequence was repeated 10 times. FIGS. 4A, 4B show the test results. […] In essentially the same manner, cyclophenol (CP) was used as a.lipophilic marker. Tape-stripping was repeated 7 times after application of fluindostatin.

[3] = tested on: hairless mouse; experiment: TEWL recovery after oleic acid treatment; format: in vivo; conditions: 30 μl of 1.5% fluindostatin or 0.25% TOFA in propylene glycol/ethanol 7:3, two hours after 5% oleic acid (FIG. 6A, 6B)
Protocol: A female hairless mouse, aged 8 weeks, was treated with oleic acid. After oleic acid treatment, fluindostatin and/or 5-tetradecyloxy-2-furancarboxylic acid (TOFA) was applied to the animal.
TEWL (trans-epidermal water loss) was measured before and after treatment at convenient time intervals when the animal was alert. An Evaporimeter (ServoMed) was used.
First, TEWL of the left (LHS) and right (RHS) dorsal sides was measured. Then, the animal was anesthetized by 0.25 ml chloral hydrate (CH) IP injection. At t=0, an aliquot of 30 μl oleic acid solution (5% in propylene glycol/ethanol 7:3 (v/v)) was applied directly to both sides of the animal (˜1.5×3 cm) using a Hamilton syringe. […] TEWL was measured thereafter every 2 or 3 hours.

[4] = tested on: hairless mice; experiment: TEWL (water permeability) 4 hours after application to acetone-treated skin; format: in vivo; conditions: for stratum corneum water permeability (TEWL), increase vs vehicle in words: statistical significance vs vehicle, concentrations and skin treatment as in Tables 2-7
[5] = Transdermal LHRH delivery: plasma level by radioimmunoassay, ratio to vehicle; conditions: ratio of LHRH plasma levels (RIA) after tested delivery compound(s) to vehicle; acid lipase vs its vehicle MES
[6] = topical; literature (J. Clin. Invest. 88, 1991); cited from earlier work
[7] = solitary agent, Conc 0.5 %, acetone-treated skin
[8] = solitary agent, Conc 1.0 %, acetone-treated skin
[9] = statistical significance vs vehicle, concentrations and skin treatment as in Tables 2-7
[10] = lidocaine, solitary enhancer Conc 0.5 %, acetone-treated skin

## CCCCCCCC/C=C\CCCCCCCC(=O)O[C@H]1CC[C@@]2(C)C(=CC[C@H]3[C@@H]4CC[C@H]([C@H](C)CCCC(C)C)[C@@]4(C)CC[C@@H]32)C1 [CHO, Cholesterol Oleate]
[1]; Table 9, 0.05 weight %, 24 h
  24 h TEWL (x baseline): 1.53 x baseline
[1]; Table 9, 0.05 weight %
  48 h TEWL (x baseline): 2.16 x baseline
  72 h TEWL (x baseline): 2.71 x baseline
[1]; intact pig skin
  barrier integrity / barrier permeability (TEWL) vs occlusion and TS controls, in words: comparable to or superior to both controls

## CCN(CC)CCCC(C)Nc1ccnc2cc(Cl)ccc12 (stereo not shown) [CQ, Chloroquine]
[1]; intact pig skin
  barrier integrity / barrier permeability (TEWL) vs occlusion and TS controls, in words: increase barrier permeability to TS to a degree significantly superior to that provided by either control at all time points

## CC(C)n1c(/C=C/C(O)CC(O)CC(=O)O)c(-c2ccc(F)cc2)c2ccccc21 (stereo not shown) [Fluindostatin]
[2]; PG and CP markers
  disruption of the stratum corneum barrier (both marker data sets): caused significant disruption of the stratum corneum barrier
[2]; tape-stripping repeated 7 times, vs vehicle control (FIG. 5A, 5B)
  cyclophenol (lipophilic marker) concentration profile in stratum corneum: a lower, constant concentration level of CP
[2]; topical pretreatment 7 days, IR spectra over 10 tape-strippings, vs vehicle control (FIG. 4A, 4B)
  propylene glycol (hydrophilic marker) concentration profile in stratum corneum: lower absolute levels of PG in the stratum corneum, and a constant concentration level of PG
[3]
  recovery of the barrier (TEWL) after oleic acid disruption: delay the recovery of the barrier
[4]; 4 h
  TEWL (T = 4 hours): 431 ± 46
[4]
  stratum corneum water permeability (TEWL), increase vs vehicle in words: significantly increased it

## CC[C@H](C)C(=O)O[C@H]1CCC=C2C=C[C@H](C)[C@H](CC[C@@H]3C[C@@H](O)CC(=O)O3)[C@H]21 [MEV, Mevastatin]
[1]; Table 9, 0.08 weight %, 24 h after first administration
  24 h TEWL (x baseline): 1.75 x baseline
[1]; Table 9, 0.08 weight %
  48 h TEWL (x baseline): 2.39 x baseline
  72 h TEWL (x baseline): 3.72 x baseline
[1]; Table 9, 0.12 weight %, 24 h
  24 h TEWL (x baseline): 1.79 x baseline
[1]; Table 9, 0.12 weight %
  48 h TEWL (x baseline): 2.75 x baseline
  72 h TEWL (x baseline): 3.72 x baseline
[1]; Table 10, 0.006 weight %
  6 h Post TEWL (x baseline): 1.24 ± 0.29 x baseline
  48 h TEWL (x baseline): 2.13 ± 0.38 x baseline
  72 h TEWL (x baseline): 1.75 ± 0.21 x baseline
[1]; Table 10, 0.006 weight %, 24 h
  24 h TEWL (x baseline): 1.55 ± 0.29 x baseline
[1]; Table 10, 0.10 weight %
  6 h Post TEWL (x baseline): 2.25 ± 0.8 x baseline
  48 h TEWL (x baseline): 3.77 ± 1.42 x baseline
  72 h TEWL (x baseline): 3.04 ± 0.86 x baseline
[1]; Table 10, 0.10 weight %, 24 h
  24 h TEWL (x baseline): 1.93 ± 0.58 x baseline
[1]; Table 10, 0.25 weight %
  6 h Post TEWL (x baseline): 1.90 ± 0.28 x baseline
  48 h TEWL (x baseline): 2.66 ± 1.00 x baseline
  72 h TEWL (x baseline): 2.43 ± 0.51 x baseline
[1]; Table 10, 0.25 weight %, 24 h
  24 h TEWL (x baseline): 1.47 ± 0.18 x baseline
[1]; intact pig skin
  barrier integrity / barrier permeability (TEWL) vs occlusion and TS controls, in words: decreased barrier integrity to a substantial degree over that provided by either control
[1]; intact pig skin, said to be shown in Table 11
  capacity to deliver testosterone (TS) vs both controls, in words: superior capacity of MEV to deliver testosterone (TS) over that of both controls

## CCCCCCCC/C=C\CCCCCCCC(=O)NCCO [N-oleoylethanolamine, N-Oleoylethanolamine]
[4]; [7]
  TEWL (T = 4 hours): 720 ± 229
[4]
  stratum corneum water permeability (TEWL), increase vs vehicle in words: very significantly increased water permeability
[1]; Table 9, 0.03 weight %, 24 h
  24 h TEWL (x baseline): 1.46 x baseline
[1]; Table 9, 0.03 weight %
  48 h TEWL (x baseline): 2.25 x baseline
  72 h TEWL (x baseline): 3.15 x baseline
[1]; Table 9, 0.10 weight %, 24 h
  24 h TEWL (x baseline): 1.67 x baseline
[1]; Table 9, 0.10 weight %
  48 h TEWL (x baseline): 2.45 x baseline
  72 h TEWL (x baseline): 3.68 x baseline
[1]; intact pig skin
  barrier integrity / barrier permeability (TEWL) vs occlusion and TS controls, in words: increases barrier permeability in a dose response manner

## CCCCCCCCCCCCCCOc1ccc(C(=O)O)o1 [TOFA, 5-tetradecyloxy-2-furancarboxylic acid]
[3]
  recovery of the barrier (TEWL) after oleic acid disruption: delay the recovery of the barrier
[4]; [8]
  TEWL (T = 4 hours): 520 ± 31
[4]
  stratum corneum water permeability (TEWL), increase vs vehicle in words: very significantly increased water permeability

## CC(C)CCC[C@@H](C)[C@H]1CC[C@H]2[C@@H]3CC=C4C[C@@H](OS(=O)(=O)O)CC[C@]4(C)[C@H]3CC[C@]12C [cholesterol sulfate, Cholesterol sulfate]
[4]; [8]
  TEWL (T = 4 hours): 508 ± 169
[4]
  stratum corneum water permeability (TEWL), increase vs vehicle in words: significantly increased it
[9]
  lidocaine delivery, increase vs vehicle in words: statistically very significant increase in lidocaine delivery

## O[C@H]1[C@H](O)[C@@H](O)[C@@H]2O[C@@H]2[C@@H]1O [conduritol-β-epoxide, Conduritol-β-epoxide]
[4]; frequently applied to intact skin
  water permeability (TEWL), increase vs vehicle in words: statistically significant increased lidocaine delivery and water permeability
[4]; solitary agent, Conc 4.0 %, intact skin, TID, total 7-8 doses
  TEWL (T = 4 hours): 184 ± 39
[4]; solitary agent, Conc 4.0 %, single application, acetone-treated skin
  TEWL (T = 4 hours): 253 ± 33
[4]
  stratum corneum water permeability (TEWL), increase vs vehicle in words: failing even nearly significantly to increase either water permeability or lidocaine delivery

## CCCC[C@@H](C)[C@@H](OC(=O)C[C@@H](CC(=O)O)C(=O)O)[C@H](C[C@@H](C)C[C@H](O)CCCC[C@@H](O)C[C@H](O)[C@H](C)N)OC(=O)C[C@@H](CC(=O)O)C(=O)O [fumonisin B1, Fumonisin B1]
[4]; [7]
  TEWL (T = 4 hours): 440 ± 149
[10]
  Plasma Conc. (% dose/ml plasma): 0.24 ± 0.03 % dose/ml plasma
  Total Body Conc. (%): 14.58 ± 0.73%
[9]
  lidocaine delivery, increase vs vehicle in words: very significantly increased lidocaine delivery
[5]
  LHRH Delivery Ratio vs. Vehicle: 3.8

## CC[C@H](C)C(=O)O[C@H]1C[C@@H](C)C=C2C=C[C@H](C)[C@H](CC[C@@H]3C[C@@H](O)CC(=O)O3)[C@H]21 [lovastatin, Lovastatin]
[6]
  recovery of barrier function, assessed as transepidermal water loss: impair the recovery of barrier function

## N[C@@H](CCl)C(=O)O [β-chloroalanine, β-Chloroalanine]
[4]; [8]
  TEWL (T = 4 hours): 263 ± 35
[4]
  stratum corneum water permeability (TEWL), increase vs vehicle in words: did not increase stratum corneum water permeability
[9]
  lidocaine delivery, increase vs vehicle in words: significant increase
[6]
  recovery of barrier function, assessed as transepidermal water loss: slow barrier recovery

## Bromophenacylbromide
[4]; solitary agent on intact skin
  water permeability (TEWL), increase vs vehicle in words: but not water permeability
[4]; solitary agent, Conc 0.15 %, intact skin
  TEWL (T = 4 hours): 98 ± 47
[4]; solitary agent, Conc 0.2 %, acetone-treated (prepermeabilized) skin
  TEWL (T = 4 hours): 690 ± 177
[4]
  stratum corneum water permeability (TEWL), increase vs vehicle in words: very significant increases of both lidocaine delivery and water permeability

## Gramicidin D [GD]
[1]; intact pig skin
  barrier integrity / barrier permeability (TEWL) vs occlusion and TS controls, in words: increase barrier permeability to TS to a degree significantly superior to that provided by either control at all time points

## N-Palmitoyl-DL-dihydroxysphingosine [N-palmitoyl-DL-hydroxysphingosine]
[4]; [7]
  TEWL (T = 4 hours): 793 ± 124
[4]
  stratum corneum water permeability (TEWL), increase vs vehicle in words: very significantly increased water permeability
mouse, in vivo
  Plasma Conc. (% dose/ml plasma): 0.21 ± 0.03 % dose/ml plasma
  Total Body Conc. (%): 6.88 ± 0.69%
  lidocaine delivery, increase vs vehicle in words: significantly increased it
